Experimental data taken from the OPERA property sets (Mansouri et al. 2018).
Where a SMILES comes first, the peptide text is derived from it. [ ]: non-standard residue; d: D form. The star is where a group is joined. X1 = O=C(CCCCSc1[nH]cnc2ncnc1-2)*; Orn = NCCC[CH](N)C(=O)O

Compared with COc1cc2c(c(OC)c1OC)-c1ccc(OC)c(=O)cc1C(NC(=O)C(F)(F)F)CC2 (stereo not given), COc1cc(OCc2ccccc2CCCN2CCC(O)CC2)cc(OC)c1OC is higher in logP: 1.72 for the first, 2.6 for the second.

Going from COc1nc(C(Cl)(Cl)Cl)nc(C(Cl)(Cl)Cl)n1 to Clc1ccc(Oc2nc(C(Cl)(Cl)Cl)nc(C(Cl)(Cl)Cl)n2)cc1, the logP rises from 3.64 to 5.67.

First: CSC(SC)=C(C(=O)OC(C)C)C(=O)OC(C)C
Second: CCC(C)OC(=O)C(C(=O)OC(C)CC)=C1SC=CS1 (stereo not given)
The logP of the first is lower: 3.38 for the first, 4.89 for the second.

O=C(O)c1cccc2cccc(C(=O)O)c12 and NC(=O)Cc1cccc2cccnc12 are within 0.2 log units of each other in logP: 1.98 for the first, 1.87 for the second.

First: C#CCOc1c(Cl)cc(NC=NOC(C)C)cc1Cl
Second: C#CCOc1c(Cl)cc(NC=NOCSC)cc1Cl
The logP of the first is higher: 3.9 for the first, 3.6 for the second.

Compared with CCOc1ccccc1NC(=O)OCCN1CCOCC1, CCCCOc1ccccc1NC(=O)OCCN1CCOCC1 is higher in logP: 2.27 for the first, 3.25 for the second.

Going from CCC(=O)C(CS(=O)(=O)c1ccccc1)c1ccc(Cl)cc1 (stereo not given) to O=C(O)C(OCc1ccccc1)c1ccccc1 (stereo not given), the logP falls from 2.69 to 2.

Going from O=C(c1c[nH]c2ccccc12)C(F)(F)F to O=c1cc2ccccc2n[nH]1, the logP falls from 3.44 to 0.68.

Going from CC1CC2C3CCC4=CC(=O)C=CC4(C)C3(F)C(O)CC2(C)C1(O)C(=O)NCCO (stereo not given) to C#CCNC(=O)C1(O)C(C)CC2C3CCC4=CC(=O)C=CC4(C)C3(F)C(O)CC21C (stereo not given), the logP rises from 1.51 to 2.

Compared with CCOC(=O)COC(=O)c1cc(Oc2ccc(C(F)(F)F)cc2Cl)ccc1[N+](=O)[O-], COc1ccc2cc(C(C)C(=O)OCC(N)=O)ccc2c1 (stereo not given) is lower in logP: 3.65 for the first, 2.06 for the second.

Going from CC(OCc1cn(C)c(C=NO)n1)C(C)(C)C (stereo not given) to CC(C)(C)C(=O)OCn1cc2c(=O)[nH]cnc2n1, the logP falls from 2.53 to 0.79.

Going from CCCCCCCOc1cccc(NC(=O)OCCN2CCOCC2)c1 to CCCCCCCOc1ccccc1NC(=O)OCCN1CCOCC1, the logP falls from 5.28 to 4.51.

N#CCc1ccc(O)c2ncccc12 and CC(=O)c1ccc(O)c2ncccc12 are within 0.2 log units of each other in logP: 1.81 for the first, 1.8 for the second.

First: Cc1c(O)c(=O)ccn1-c1ccccc1
Second: CN(C)N=Nc1ccc2oc3ccccc3c2c1
The logP of the first is lower: 1.12 for the first, 4.55 for the second.

First: CCCN1C(=O)NC(=O)C(=O)C1=O
Second: CCN1C(=O)NC(=O)C(=O)C1=O
The logP of the first is higher: 0.28 for the first, -0.32 for the second.

Going from CC(C)(C)C(=O)C(C#N)=NNc1cc(C(F)(F)F)cc(C(F)(F)F)c1 to COC(=O)C(C#N)=NNc1ccc(S(=O)(=O)C(F)(F)F)cc1, the logP falls from 5.44 to 4.22.

Going from CCC1CC(C(=O)NC(C(C)O)C2OC(SC)C(O)C(O)C2O)N(C)C1 (stereo not given) to CCN1CCN(C(=O)N[C@@H](C(=O)N[C@@H]2C(=O)N3[C@@H]2SC(C)(C)[C@@H]3C(=O)O)c2ccccc2)C(=O)C1=O, the logP rises from -0.4 to 0.5.

O=C(O)C[N+]1([O-])CCN(C(=O)Cn2c(=O)sc3ccc(Cl)cc32)CC1 and CN1CCN(Cc2ccc(Cl)nc2)C1=N[N+](=O)[O-] are within 0.2 log units of each other in logP: 0.21 for the first, 0.26 for the second.

Going from CCNc1nc(NC)nc(SC(F)F)n1 to CCSc1nc(NC(C)C)nc(NC(C)C)n1, the logP rises from 2.68 to 3.81.

Going from COc1ncnc2c1ncn2C1OC(CO)CC1F (stereo not given) to Nc1ncnc2c1ncn2C1OC(CO)CC1O (stereo not given), the logP falls from 0.25 to -0.61.

CNc1nccn2cc(-c3ccc(S(C)=O)cc3OC)nc12 (stereo not given) and COc1ccc(OC)c(Cc2cnc(N)nc2N)c1 are within 0.2 log units of each other in logP: 1.88 for the first, 1.7 for the second.

Compared with CCOc1ccc(OCc2ccccc2CCCN2CCC(O)CC2)cc1, COc1ccccc1OCc1ccccc1CCCN1CCC(O)CC1 is lower in logP: 3.42 for the first, 2.82 for the second.

Compared with CCC(=O)C1(c2cccc(O)c2)CCN(C)CC1, CCOC(=O)Oc1cccc(C2(C(=O)CC)CCN(C)CC2)c1 is higher in logP: 1.02 for the first, 1.29 for the second.

First: O=P([O-])(Oc1ccc(Cl)cc1)Oc1ccc(Cl)cc1
Second: Nc1ccc(Oc2ccc(N)cc2)cc1
The logP of the first is higher: 2.64 for the first, 1.36 for the second.

Compared with Cc1nnc(SCC2=C(C(=O)OCOC(=O)C(C)(C)C)N3C(=O)C(NC(=O)Cn4cnnn4)C3SC2)s1 (stereo not given), CC1(C)SC2C(NC(=O)c3c(-c4c(F)cccc4Cl)noc3CO)C(=O)N2C1C(=O)O (stereo not given) is higher in logP: 1.34 for the first, 2.23 for the second.

First: Cc1cccc(C)c1N
Second: CC(C)c1cccc(C(C)C)c1N
The logP of the first is lower: 1.84 for the first, 3.18 for the second.

Clc1cc(Cl)cc(-c2c(Cl)cc(Cl)c(Cl)c2Cl)c1 and Clc1cc(Cl)c(Cl)c(-c2cc(Cl)cc(Cl)c2Cl)c1 are within 0.2 log units of each other in logP: 7.1 for the first, 7.07 for the second.

COc1ccccc1SCc1ccccc1CCCN1CCC(O)CC1 and Fc1ccc(SCc2ccc(CCCN3CCOCC3)cc2)cc1 are within 0.2 log units of each other in logP: 3.58 for the first, 3.51 for the second.

Compared with Clc1ccc(Cl)c(-c2c(Cl)c(Cl)c(Cl)c(Cl)c2Cl)c1, Clc1ccc(Cl)c(-c2ccc(Cl)c(Cl)c2Cl)c1 is lower in logP: 7.93 for the first, 6.85 for the second.

Compared with CNc1nc(Cl)c(SC)c(N2CCN(C)CC2)n1, CN(C)c1nc(=O)n(C2CCCCC2)c(=O)n1C is lower in logP: 2.99 for the first, 1.85 for the second.

Compared with Clc1ccc(-c2cc(Cl)c(Cl)c(Cl)c2Cl)cc1Cl, Clc1ccc(-c2ccc(Cl)c(Cl)c2)c(Cl)c1 is lower in logP: 7.6 for the first, 6.31 for the second.

Going from S=C=NCCCCc1cccnc1 to S=C=NCCCc1ccccc1, the logP rises from 2.7 to 3.8.

Compared with Clc1cc2c(cc1Cl)Oc1c(cc(Cl)c(Cl)c1Cl)O2, Cc1cc(Cl)c(Cl)cc1Cl is lower in logP: 6.64 for the first, 4.56 for the second.

Compared with COc1cc(Cc2cnc(N)nc2N)cc(Br)c1OC, C=C(C)c1c(OC)cc(Cc2cnc(N)nc2N)cc1OCC is higher in logP: 2.23 for the first, 2.65 for the second.

Going from O=C(O)c1ccc(CCl)cc1 to O=C(O)C(Cc1ccc(O)cc1)n1cccc1 (stereo not given), the logP falls from 2.12 to 1.56.

First: CC(C)NCC(COc1cccc2ccccc12)OS(=O)(=O)O (stereo not given)
Second: CC(O)COc1ccccc1 (stereo not given)
The logP of the first is lower: 1.16 for the first, 1.61 for the second.

First: CCCCN1C(=O)C(=O)c2ccccc2C1=O
Second: CN1C(=O)C(=O)c2ccccc2C1=O
The logP of the first is higher: 2.18 for the first, 0.6 for the second.

Compared with CCC(C)NC(=O)C(=Cc1ccccc1)c1ccccc1 (stereo not given), CC(C)(C)N(NC(=O)c1cccc(F)c1)C(=O)c1ccccc1Cl is lower in logP: 4.05 for the first, 2.88 for the second.

First: CCCC(=O)OCCOCn1cnc2c(=O)[nH]c(N)nc21
Second: CCCCCCOC(=O)n1cc(F)c(=O)[nH]c1=O
The logP of the first is lower: -0.08 for the first, 2.04 for the second.

Going from COCC(F)Cn1cnc([N+](=O)[O-])n1 (stereo not given) to O=C(NCCO)C(F)(F)Cn1cnc([N+](=O)[O-])n1, the logP falls from -0.04 to -0.77.

Going from C=Cc1ncc([N+](=O)[O-])n1C to Cn1c([N+](=O)[O-])cnc1C(N)=O, the logP falls from 0.62 to 0.29.

First: Cc1cn(C2CC(N=[N+]=[N-])C(COC(=O)CNC(=O)C34CC5CC(CC(C5)C3)C4)O2)c(=O)[nH]c1=O (stereo not given)
Second: Cc1ccccc1C(=O)OCC1CCC(n2cnc3c(=O)[nH]cnc32)O1 (stereo not given)
The logP of the first is higher: 2.1 for the first, 1.02 for the second.

Going from COCCCNc1nc(NC(C)C)nc(SC)n1 to COC(=O)c1ccccc1CS(=O)(=O)Nc1nc(OC)cc(OC)n1, the logP falls from 2.82 to 2.4.

Compared with CN1C(=O)NC(=O)C(=O)C1=O, CN(C)c1ccc2c(c1)C(=O)N(OS(C)(=O)=O)C2=O is higher in logP: -1.01 for the first, 1.65 for the second.

c1ccc(Cn2cccc2)cc1 and c1ccc(OCc2cccc(CN3CCCOC3)c2)cc1 are within 0.2 log units of each other in logP: 2.71 for the first, 2.75 for the second.

Compared with CCCCOc1ccc(NC(=O)OCCN2CCOCC2)cc1, CCOc1cccc(NC(=O)OCCN2CCOCC2)c1 is lower in logP: 3.35 for the first, 2.5 for the second.

Compared with CCN(CC)C(=O)OCCCc1cccnc1, CCN(CC)N=Nc1ccccc1C(N)=O is higher in logP: 2.36 for the first, 2.96 for the second.

Going from CC1CC2C3CCC4=CC(=O)C=CC4(C)C3(F)C(O)CC2(C)C1(O)C(=O)NCCc1ccccc1 (stereo not given) to CCCCCCNC(=O)C1(O)C(C)CC2C3CCC4=CC(=O)C=CC4(C)C3(F)C(O)CC21C (stereo not given), the logP rises from 3.66 to 4.54.

First: Nc1ncnc2c1nc(F)n2C1CCC(CO)O1 (stereo not given)
Second: CC1(C)COC(Cn2cncn2)(c2ccc(-n3ccnc3)cc2Cl)OC1
The logP of the first is lower: -0.03 for the first, 2.26 for the second.

Going from Cc1ccc(NC(=O)c2[nH]nc(C)c2[N+](=O)[O-])cc1 to Cc1n[nH]c(C(=O)N2CCCCC2)c1[N+](=O)[O-], the logP falls from 2.34 to 0.79.

CC(=O)NC(CCCN)C(=O)NC(Cc1ccccc1)C(N)=O (stereo not given) and CC(=O)NC(CCCCN)C(=O)NC(Cc1ccccc1)C(=O)NC(C(N)=O)C(C)C (stereo not given) are within 0.2 log units of each other in logP: 0.41 for the first, 0.51 for the second.

Going from CCN(C)N=Nc1ccccc1C(N)=O to CCOC(=O)c1ccc(N=NN(C)C)cc1, the logP rises from 2.59 to 3.66.

Compared with CC1CC2C3CCC4=CC(=O)C=CC4(C)C3(F)C(O)CC2(C)C1(O)C(=O)NC1CCCCC1 (stereo not given), CC(=O)OC1CC(OC2CCC3(C)C(CCC4C3CC(O)C3(C)C(C5=CC(=O)OC5)CCC43O)C2)OC(C)C1OC1CC(O)C(OC2CC(O)C(O)C(C)O2)C(C)O1 (stereo not given) is lower in logP: 3.54 for the first, 1.71 for the second.

Compared with CCCCC(NC(Cc1ccccc1)C(=O)N1CCC(OCOC)CC1)C(=O)NC(CC1CCCCC1)C(O)CC(C(=O)NCCC[N+]1([O-])CCOCC1)C(C)C (stereo not given), CCN1CC(C(O)C(CC2CCCCC2)NC(=O)C(Cc2c[nH]cn2)NC(=O)C(Cc2ccc(OC)cc2)NC(=O)N(C)CCOCOC)OC1=O (stereo not given) is lower in logP: 3.6 for the first, 2.3 for the second.

First: CC(=O)Nc1c(I)c(C(=O)NC(CO)CO)c(I)c(C(=O)NC(CO)CO)c1I
Second: CC(=O)NC(CCCN)C(=O)NC(CC(C)C)C(N)=O (stereo not given) (Ac-[Orn]-Leu-NH2; configuration not given here)
The logP of the first is lower: -2.27 for the first, -0.71 for the second.

Cc1ccc(NN=C(C#N)C#N)c([N+](=O)[O-])c1 and Cc1ccc(Cl)cc1O are within 0.2 log units of each other in logP: 2.5 for the first, 2.63 for the second.

Going from CC(C)(C)C(COc1ccc(C(F)(F)F)cc1)OC(=O)n1ccnc1 (stereo not given) to CC(C)C(=O)Nc1cc(C(F)(F)F)ccc1S(N)(=O)=O, the logP falls from 4.15 to 2.45.

First: COC(=O)c1ccc2[nH]ccc2c1
Second: CCOc1ccc(C(=O)O)cc1OCC
The logP of the first is higher: 2.58 for the first, 2.37 for the second.

First: CCCOc1ccc2ccc(=O)oc2c1
Second: CCCCCOc1ccc2ccc(=O)oc2c1
The logP of the first is lower: 2.86 for the first, 3.92 for the second.

Compared with CCC(C)C(NC(=O)C(CC(=O)O)NC(C)=O)C(=O)NC(Cc1ccccc1)C(N)=O (stereo not given), CCOC(=O)CNC(=O)CNC(=O)CNC(=O)CNC(=O)CCCCSc1[nH]cnc2ncnc1-2 (X1-GGGG-OEt) is lower in logP: 0.61 for the first, -0.23 for the second.

Going from C#CCOc1c(Cl)cc(NC=NOCC=CCl)cc1Cl to O=[N+]([O-])C=C1SCCN1Cc1ccc(Cl)nc1, the logP falls from 3.9 to 0.65.

CC(C)C(=O)NS(=O)(=O)c1ccc(C(F)(F)F)cc1N and CCN1C(=O)C(=O)c2cc3ccccc3cc2C1=O are within 0.2 log units of each other in logP: 2.56 for the first, 2.47 for the second.

Compared with CSC1=NCCN1c1ccc([N+](=O)[O-])o1, CC1=C(c2ccccc2)CCN(C)C1 is higher in logP: 1.19 for the first, 3.18 for the second.

Compared with ClC1CC(Cl)C(Cl)CC1Cl (stereo not given), O=Cn1c2c(c3ccccc31)CCNC2 is lower in logP: 2.82 for the first, 0.26 for the second.

Compared with ON=Cc1nnc(-c2ccccc2)o1, Cc1nnc[nH]1 is lower in logP: 2.03 for the first, -0.55 for the second.
